Laboratory results taken from patent US8629164B2, “Inhibitors of NF-κB” (Profectus Biosciences, Inc., priority 2009, dated 2014).

Experiments:
[1] = molecular target: T1, RelB (Homo sapiens, UniProt Q01201); test: TransAM NF-κB Family DNA Binding ELISA, RelB; settings: RelB binding to DNA IC50, FIG. 8, non-canonical pathway
T1 sequence (Q01201 1-579): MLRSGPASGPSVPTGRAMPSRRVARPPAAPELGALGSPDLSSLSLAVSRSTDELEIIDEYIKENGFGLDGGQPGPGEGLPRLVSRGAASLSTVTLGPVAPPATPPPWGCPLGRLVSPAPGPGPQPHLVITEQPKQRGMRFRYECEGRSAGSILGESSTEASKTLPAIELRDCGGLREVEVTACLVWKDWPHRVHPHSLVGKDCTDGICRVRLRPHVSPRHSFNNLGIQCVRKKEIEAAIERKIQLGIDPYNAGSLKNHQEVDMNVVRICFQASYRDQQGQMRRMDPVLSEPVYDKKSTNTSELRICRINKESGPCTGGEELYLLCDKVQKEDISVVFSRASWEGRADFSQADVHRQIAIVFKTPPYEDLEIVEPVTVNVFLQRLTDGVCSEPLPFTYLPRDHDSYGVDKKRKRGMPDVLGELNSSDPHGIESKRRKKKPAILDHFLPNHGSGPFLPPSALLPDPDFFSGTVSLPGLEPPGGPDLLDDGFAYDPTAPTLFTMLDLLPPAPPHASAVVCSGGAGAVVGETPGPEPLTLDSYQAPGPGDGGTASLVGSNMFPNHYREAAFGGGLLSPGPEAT
T1 sequence (Q00653 1-454 partner limits assumed): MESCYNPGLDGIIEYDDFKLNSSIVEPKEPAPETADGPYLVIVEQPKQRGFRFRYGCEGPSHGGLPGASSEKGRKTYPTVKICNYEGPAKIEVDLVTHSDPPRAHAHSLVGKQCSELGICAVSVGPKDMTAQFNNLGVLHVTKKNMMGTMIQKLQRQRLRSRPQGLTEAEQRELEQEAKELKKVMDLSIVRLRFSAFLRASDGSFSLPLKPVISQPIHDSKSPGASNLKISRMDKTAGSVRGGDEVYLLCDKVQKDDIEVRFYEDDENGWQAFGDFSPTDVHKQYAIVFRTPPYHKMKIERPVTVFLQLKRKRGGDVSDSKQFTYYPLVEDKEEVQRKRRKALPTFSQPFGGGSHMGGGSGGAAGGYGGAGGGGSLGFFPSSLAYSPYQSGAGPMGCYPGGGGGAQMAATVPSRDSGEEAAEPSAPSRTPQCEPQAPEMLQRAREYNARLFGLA
Description: Treated samples were then transferred to 30 μL Complete Binding Buffer (with DTT) in microplate wells pre-coated with the NF-κB consensus oligonucleotide. […] The plate was incubated for 1 hour at room temperature with gentle shaking and then washed 3 times with 200 μL 1× Wash Buffer. NF-κB p65, p50, p52, RelB, or c-Rel subunits bound to the plate were detected with 100 μL of the primary antibody (diluted 1:1000 in 1× Antibody Buffer) specific for that subunit. The plate was incubated for 1 hour at room temperature and then washed 3 times with 200 μL 1× Wash Buffer. Next, 100 μL of a HRP conjugated goat anti-rabbit antibody (diluted 1:1,000 in 1× Antibody Buffer) was added to each well. The plate was incubated for 1 hour at room temperature and then washed 4 times with 200 μL 1× Wash Buffer. 100 μL of room temperature Developing Solution was added to each well. The reaction was allowed to develop for 2-10 minutes until a medium dark blue color developed (depending on the subunit activity in the lot of extract or lot of recombinant protein used) and then the reaction was stopped with 100 μL Stop Solution yielding a yellow color. Absorbance was recorded using a Becton-Dickinson DTX 880 Multimode Detector at 450 nm with a reference wavelength subtracted at 620 nm.

[2] = test system: human peripheral blood mononuclear cells (hPBMCs); test: Cytotoxicity to hPBMCs (CellTiter-Glo); type: cell-based; settings: hPBMCs, at 40 μM
Description: Human peripheral blood mononuclear cells (hPBMCs) were treated with example 1 or DHMEQ and the percentage of viable cells was assessed 24 hours post drug treatment. The graph represents the mean±the standard deviation of three replicate experiments.
The cytotoxicity profile of the compound of Example 1. The cytotoxicity of the compound of Example 1 was determined for human peripheral blood mononuclear cells (hPBMCs). As with the activity assay, the hPBMCs were treated with 0, 0.2, 1, 10, 20 and 40 μM of the compound of Example 1 for 2 hours, and then induced with 20 ng/ml TNF-α for 48 hours. The number of viable cells was determined using CellTiter-Glo luminescent cell viability assay (Promega (cat #G7573)). […] The selectivity index (the ratio of cytotoxicity CC50 to inhibitory IC50) is assigned to the compound of Example 1.

[3] = test system: RelA/p65; test: Immunostaining of RelA/p65 nuclear translocation in Hek293 cells; type: cell-based; settings: TNFα 20 ng/ml, 30 minutes
Description: (§1) Specifically, the compound of Example 1 causes the accumulation of activated RelA/p65 in the cytoplasm of cells. Hek293 cells were treated with DHMEQ or the compound of Example 1 (as indicated) with TNFα (20 ng/ml) for 30 minutes. After incubation, the cells were immunostained with anti-p65 antibody (C-20) antibody (Santa Cruz Biotechnology, Santa Cruz, Calif.) and nuclei were counterstained with Dapi. Images were captured using an AE31 inverted microscope with epifluorescence illuminator (Motic, Xiamen, China) and a ProgRes C3 camera (JENOPTIK, Jena, Germany). Individual images of p65 and corresponding nuclei were merged for final figure. Control treated cells (DMSO only) show nuclear accumulation of p65 upon TNFα stimulation.
as §1, with “Immunostaining of RelA/p65. The” for “Specifically, the”, “incubation,” for “incubation, the”, “figure.” for “figure. Control treated cells (DMSO only) show nuclear accumulation of p65 upon TNFα stimulation.”

IC50 [1]: > 20 µM
Compound: O=C(NC1=CC(=O)C2OC2C1O)c1ccccc1O (stereo not drawn) [DHMEQ, dehydroxymethylepoxyquinomicin, reference compound]
inhibition of cell growth [2]: greater than 60%
concentration at which TNFα induced nuclear accumulation of p65 was significantly blocked [3]: higher concentration
